Reference: PubChem BioAssay AID1645861 (Buhrlage Lab, Dana-Farber Cancer Institute and Novartis …, 2021)
The source made the active and inactive calls.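 The calls were made as follows: active = compounds whose peak USP7 inhibition across the dose series reached 30% or more; inactive = the rest.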

Target: Ubiquitin carboxyl-terminal hydrolase 7 (Homo sapiens) (UniProt Q93009)
Experiment: Ubiquitin-specific protease 7 DUB inhibitors, concentration-effect, biochemical, validation of primary hits (AID 1645861)
Settings: purified USP7, Ub-rhodamine cleavage fluorescence, 60 min

Ubiquitin carboxyl-terminal hydrolase 7 (Homo sapiens), sequence (Q93009 whole entry, looked up): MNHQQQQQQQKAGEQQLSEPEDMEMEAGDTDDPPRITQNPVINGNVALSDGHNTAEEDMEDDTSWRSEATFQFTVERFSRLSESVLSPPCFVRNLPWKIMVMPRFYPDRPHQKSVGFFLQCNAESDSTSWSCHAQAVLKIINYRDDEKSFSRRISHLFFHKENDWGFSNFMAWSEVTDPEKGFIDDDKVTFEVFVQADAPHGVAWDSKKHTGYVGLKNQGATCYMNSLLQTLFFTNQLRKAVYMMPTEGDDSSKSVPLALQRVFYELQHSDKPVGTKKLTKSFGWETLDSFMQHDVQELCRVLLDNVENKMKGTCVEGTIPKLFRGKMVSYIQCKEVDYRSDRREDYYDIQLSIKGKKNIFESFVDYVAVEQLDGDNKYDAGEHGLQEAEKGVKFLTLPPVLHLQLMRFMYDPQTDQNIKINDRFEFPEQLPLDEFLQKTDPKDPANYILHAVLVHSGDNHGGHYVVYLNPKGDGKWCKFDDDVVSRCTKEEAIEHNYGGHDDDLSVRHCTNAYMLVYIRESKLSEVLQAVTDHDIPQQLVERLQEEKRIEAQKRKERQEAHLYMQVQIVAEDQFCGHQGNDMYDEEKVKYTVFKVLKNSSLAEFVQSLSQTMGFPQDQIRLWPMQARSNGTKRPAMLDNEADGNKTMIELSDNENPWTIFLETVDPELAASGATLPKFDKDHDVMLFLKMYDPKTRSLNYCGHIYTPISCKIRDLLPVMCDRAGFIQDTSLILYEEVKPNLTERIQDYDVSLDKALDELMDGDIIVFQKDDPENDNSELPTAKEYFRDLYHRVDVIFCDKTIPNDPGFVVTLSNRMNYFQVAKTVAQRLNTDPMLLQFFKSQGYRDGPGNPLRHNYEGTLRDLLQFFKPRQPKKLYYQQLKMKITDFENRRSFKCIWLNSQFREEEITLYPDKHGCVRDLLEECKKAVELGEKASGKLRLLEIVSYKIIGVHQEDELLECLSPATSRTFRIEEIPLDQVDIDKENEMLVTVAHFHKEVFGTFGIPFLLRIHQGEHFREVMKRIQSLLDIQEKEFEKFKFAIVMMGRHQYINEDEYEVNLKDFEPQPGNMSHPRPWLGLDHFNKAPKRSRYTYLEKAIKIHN

SMILES | IC50
CCCCCC1OC(=O)c2c(C)cccc2Oc2ccc(O)c(C=O)c2/C=C/C1O (centres undefined) | > 50 µM (inactive)
O=C(Cn1c(=O)n(CCC(=O)N2CCc3ccccc3C2)c(=O)c2ccccc21)NCc1ccccc1Cl | > 50 µM (inactive)
Cc1cc(C(=O)NC2(O)C(=O)c3ccccc3C2=O)n(C)n1 | > 50 µM (inactive)
O=c1[nH]c(C2CCN(S(=O)(=O)c3ccc(S(=O)(=O)NC4CCCCC4)cc3)CC2)nc2c1nnn2Cc1ccc(F)cc1 | > 50 µM (inactive)
Cc1ccc(C(=O)NC(C)c2ccccc2)cc1NC(=O)c1nsc2ccccc12 (centres undefined) | > 50 µM (inactive)
O=C(O)C1C(C(=O)Nc2ccccc2)C2(c3ccccc3)C(=O)C1(c1ccccc1)C(c1ccccc1)=C2c1ccccc1 (centres undefined) | 15.8 µM
C=C/C(=C/C(=O)C[C@H](C)C[C@@H](C)CC[C@H](O)[C@H](C)C(=O)CC(O)[C@H](C)[C@@H](C)OC(=O)C[C@@H](O)C1=C(C)C(=O)OC1=O)CC (some centres undefined) | 43.1 µM
CCc1nc(SCC(=O)Nc2ccc(Cl)c(Cl)c2)c2oc3ccccc3c2n1 | > 50 µM (inactive)
O=C(NCc1ccc2c(c1)OCO2)c1[nH]nc2c1COc1ccccc1-2 | > 50 µM (inactive)
N#Cc1ccccc1NC(=O)c1cc2c(s1)-c1ccccc1S(=O)(=O)C2 | > 50 µM (inactive)
Cc1ccc2nc(CNc3ccc(F)cc3C)cc(=O)n2c1 | > 50 µM (inactive)
Cc1cc(NC(=O)c2cc(-c3cccnc3)n[nH]2)ccc1Br | 48.6 µM
CCOc1ccc2cc3c(nc2c1)OC(=O)N(Cc1ccc(OC)cc1)C3 | > 50 µM (inactive)
O=C(CCCc1nnc2c(=O)n(-c3cccc(F)c3)ccn12)NCc1ccc(Cl)cc1 | > 50 µM (inactive)
N#Cc1cccc(NC(=O)Nc2cccn(Cc3ccccc3F)c2=O)c1 | > 50 µM (inactive)
O=C1c2c(O)cccc2C2(Oc3cccc4cccc(c34)O2)C2OC12 (centres undefined) | > 50 µM (inactive)
Cc1ccc([N+](=O)[O-])cc1S(=O)(=O)Nc1cc2sc(=O)oc2c2ccccc12 | > 50 µM (inactive)
CC(C)(C)C(=O)[C@@H]1[C@@H](C(=O)c2ccc3c(c2)OCO3)[C@@]2(C(=O)Nc3ccccc32)[C@H]2c3ccccc3C=CN12 | > 50 µM (inactive)
Cc1cc(=O)n(C)c2c(O)c3c(cc12)c(C)cc(=O)n3C | > 50 µM (inactive)
O=C(CSc1nc2cc(C(F)(F)F)ccc2s1)NCC(=O)c1ccccc1 | 35.8 µM
O=c1c(O)c(-c2ccc(O)c(O)c2)oc2cc(O)cc(O)c12 | 5.22 µM
C=C1C=C(CCC(=O)O)C(=O)OC1/C=C/C=C/C (centres undefined) | 18.2 µM
O=C(O)c1cccc(NC(=O)C(Sc2cccc(NC(=O)c3cccc(Cl)c3)c2)c2ccccc2)c1 (centres undefined) | 45.8 µM

SMILES | IC50
COC(=O)c1ccc2c(=O)n(CCCCCC(=O)NCCc3ccc(S(N)(=O)=O)cc3)c(=O)[nH]c2c1 | > 50 µM (inactive)
COc1cc(OC)c(NC(=O)c2cc(-c3ccccn3)n[nH]2)cc1Cl | > 50 µM (inactive)
Cc1nc(N2CCN(c3ccc(Cl)cc3)CC2)c2oc3ccccc3c2n1 | > 50 µM (inactive)
O=C1CC(c2nc3ccccc3n2CCOc2ccc(Cl)cc2)CN1c1ccccc1 (centres undefined) | > 50 µM (inactive)
O=C(CSc1nnc2c3ccccc3nc(-c3ccco3)n12)N1CCCc2ccccc21 | > 50 µM (inactive)
COc1cc(NC(=O)Cc2ccccc2)ccc1NC(=O)c1cc2ccccc2o1 | > 50 µM (inactive)
O=C1CC(O)C(C2=CC(=O)c3c(O)cccc3C2=O)O1 (centres undefined) | 32.9 µM
NS(=O)(=O)c1cccc(NC(=O)/C=C/c2cn(-c3ccccc3)nc2-c2cccc([N+](=O)[O-])c2)c1 | > 50 µM (inactive)
COc1ccc(C(=O)COC(=O)c2ccccc2NS(=O)(=O)c2ccc(O)c([N+](=O)[O-])c2)cc1 | 49.3 µM
Cc1ccc2c(c1)N(C)C(=O)c1cc(NC(=O)c3ccc(F)cc3)ccc1O2 | > 50 µM (inactive)
Cn1c(=O)[nH]c2nncnc2c1=O | > 50 µM (inactive)
COC(=O)c1c(OC)cc2c(c1C)Oc1c(Cl)c(O)c(Cl)c(C)c1C(=O)O2 | > 50 µM (inactive)
O=c1c(S(=O)(=O)c2cc(F)cc(F)c2)c[nH]c2cc(Cl)ccc12 | > 50 µM (inactive)
O=C(O)CCCCCN1C(=O)CC(c2ccc(Cl)cc2)CC1=O | > 50 µM (inactive)
COC(=O)c1ccccc1NC(=O)Cn1c(=O)n(Cc2ccc(C(=O)NCc3ccco3)cc2)c(=O)c2ccccc21 | > 50 µM (inactive)
COc1ccc(C)cc1NC(=O)C1CC(=O)Nc2nc3ccccc3n21 (centres undefined) | > 50 µM (inactive)
NS(=O)(=O)c1ccc(CNC(=O)c2ccc(Cl)c(S(=O)(=O)Nc3cc(Cl)ccc3Cl)c2)cc1 | > 50 µM (inactive)
O=C(Nc1ccccc1C(=O)O)c1ccc(CSCc2ccccc2)cc1 | > 50 µM (inactive)
COC(=O)c1ccc(N2CCN(C(C)=O)CC2)c(NC(=O)COc2ccc([N+](=O)[O-])cc2)c1 | > 50 µM (inactive)
CC(=O)[C@H]1c2c(c(O)c3c(O)cccc3c2-c2c3c(c(O)c4c(O)cccc24)C(=O)C[C@](C)(O)[C@H]3C(C)=O)C(=O)C[C@]1(C)O | > 50 µM (inactive)
COc1ccc(OC)c(NC(=O)Cn2c(=O)n(C3CCCCC3)c(=O)c3ccccc32)c1 | > 50 µM (inactive)
O=C(Cn1c(=O)n(CC2CCC(C(=O)NCCc3ccccc3)CC2)c(=O)c2ccccc21)NCc1ccco1 (centres undefined) | > 50 µM (inactive)
Cc1ccc2c(c1)c(=O)c(C(=O)c1ccccc1)cn2CC(=O)Nc1ccccc1 | > 50 µM (inactive)

SMILES | IC50
Cc1cc(C(F)(F)F)n2nc(C3CCN(C(=O)c4cnn(C)c4C)C3)cc2n1 (centres undefined) | > 50 µM (inactive)
COc1ccc(Nc2nc3c(S(=O)(=O)c4ccc(C)cc4)nnn3c3ccsc23)c(OC)c1 | > 50 µM (inactive)
C[C@@H]1OC2=C(C(=O)c3cccc(O)c3C2=O)[C@H](O)[C@@H]1O | > 50 µM (inactive)
C[C@H](NC(=O)Cc1ccccc1F)c1nc2cc(-c3ccccc3F)ncn2n1 | > 50 µM (inactive)
CCc1ccc(NC(=O)C(C)OC(=O)/C=C/c2ccc(S(=O)(=O)Nc3cccc(S(N)(=O)=O)c3)cc2)cc1 (centres undefined) | > 50 µM (inactive)
COc1ccc(-c2c(NC(=O)C3COc4ccccc4O3)n[nH]c2C)cc1OC (centres undefined) | > 50 µM (inactive)
COc1cccc(-n2cnc3cc(C(=O)NCCc4ccccc4)ccc3c2=O)c1 | > 50 µM (inactive)
COCCn1c(=O)[nH]c2cc(C(=O)NCCNc3ccc([N+](=O)[O-])cc3C#N)ccc2c1=O | > 50 µM (inactive)
Cc1cc(=O)n2c3c(c4c(cc13)c(CO)cc(=O)n4C)OC2 | > 50 µM (inactive)
O=c1[nH]c2ccc(S(=O)(=O)Nc3ccc(O)c4ccccc34)cc2[nH]1 | > 50 µM (inactive)
CC(C)CC1NC(=O)C2CCCN2C1=O (centres undefined) | > 50 µM (inactive)
Cc1ccc(-c2nc(NC(=O)COc3ccc(Cl)cc3)no2)cc1 | 22.5 µM
O=C(NCCc1nc2ccccc2n1CCOc1ccccc1Cl)C1CCCCC1 | > 50 µM (inactive)
Cc1cc(C(=O)N2CCOCC2)c(C)n1-c1ccc(O)cc1 | > 50 µM (inactive)
CC(C)=CCOC(C)(C)[C@H]1OC2CC[C@@]3(C)C(CCC4Cc5c([nH]c6ccccc56)[C@@]43C)C23OC3[C@@H]1O (some centres undefined) | 37.7 µM
CCn1cc2c(n1)c(=O)n(Cc1ccccc1)c(=O)n2CC(=O)Nc1ccc(OC)cc1 | > 50 µM (inactive)
O=C(NCC1(c2ccccc2)CCC1)c1nc2n(n1)-c1ccccc1S(=O)(=O)N2 | > 50 µM (inactive)
Cc1ccc(NC(=O)CSc2nnc(-c3n[nH]c4c3CCC4)n2N)cc1C | > 50 µM (inactive)
CCCCCCCCCc1cc(OC(=O)c2c(CCCCCCCCC)cc(O)cc2O[C@@H]2O[C@H](CO)[C@@H](O)[C@H](O)[C@H]2O)cc(O)c1C(=O)O | 5.09 µM
O=C1Cc2ccccc2C(=O)N1c1ccc2c(c1)OCO2 | > 50 µM (inactive)
O=C(NCc1ccc(F)cc1)c1cccc(Nc2nc3ccccc3n3cnnc23)c1 | > 50 µM (inactive)
Cn1c2ccccc2c2ncn(CCCN3CCOCC3)c(=O)c21 | > 50 µM (inactive)
Cc1ccc(Nc2nc3c(S(=O)(=O)c4ccccc4)nnn3c3ccccc23)c(C)c1 | 48 µM

SMILES | IC50
CCCCCCCCCCCC1=C(O)C(=O)C=C(O)C1=O | 14.7 µM
O=C(Cn1cc(C(=O)C(F)(F)F)c2cc(Br)ccc21)N1CCc2ccccc21 | > 50 µM (inactive)
Cc1ccc(CNC(=O)CCCn2c(=O)c3sccc3n(CC(=O)Nc3cc(Cl)ccc3C)c2=O)cc1 | > 50 µM (inactive)
Cc1cc(C)cc(NC(=O)Nc2ccccc2OCc2cc(=O)n3c(ncn3C(C)C)n2)c1 | > 50 µM (inactive)
Cc1ccc(Cl)cc1NC(=O)Cn1c(=O)n(CCC(=O)NCc2ccco2)c(=O)c2ccccc21 | > 50 µM (inactive)
N#Cc1cccc(NC(=O)COC(=O)c2n[nH]c3ccccc23)c1 | > 50 µM (inactive)
Cc1ccc(NC(=O)Cn2c(=O)n(CC(=O)NCc3ccco3)c(=O)c3ccccc32)cc1C | > 50 µM (inactive)
O=C(NCc1ccc2c(c1)OCO2)c1cc2c(s1)CCC2 | > 50 µM (inactive)
Cc1ccnc(Nc2nc(-c3ccccc3)c3cc(Cl)ccc3n2)n1 | 38.5 µM
CCOc1cccc(-c2noc(-c3nn(-c4ccccc4)ccc3=O)n2)c1 | > 50 µM (inactive)
O=C(CSc1ccc(-c2cccc([N+](=O)[O-])c2)nn1)Nc1cccc(F)c1 | > 50 µM (inactive)
O=C(Cn1c(=O)n(Cc2ccc3c(c2)OCO3)c(=O)c2ccccc21)NCc1ccco1 | > 50 µM (inactive)
Cc1[nH]nc(NC(=O)C2COc3ccccc3O2)c1-c1ccccc1 (centres undefined) | > 50 µM (inactive)
O=C1C=C(O)c2c(O)cccc2C1=O | > 50 µM (inactive)
O=C1CC(c2ccco2)Cc2[nH]c(=O)c(-c3nc(-c4ccc(Cl)cc4)cs3)cc21 (centres undefined) | 28.8 µM
COc1ccccc1-c1nc(-c2cn(-c3ccc(F)cc3)nn2)no1 | 43.9 µM
O=C(OC1CSc2nc3ccccc3n2C1)c1ccc([N+](=O)[O-])o1 (centres undefined) | > 50 µM (inactive)
COc1cc(Cl)c(NC(=O)C2Cc3ccccc3N2C(=O)c2ccccc2)c(OC)c1 (centres undefined) | > 50 µM (inactive)
CC(NC(=O)c1ccccc1)c1nc2ccccc2n1CC(=O)Nc1ccc(OC(F)(F)F)cc1 (centres undefined) | > 50 µM (inactive)
CCOc1ccc2c(c1)c(=O)c(C(=O)c1ccc(C)cc1)cn2CC(=O)Nc1ccc(C)cc1 | > 50 µM (inactive)
